Test results taken from patent US10919785B2, “Hydraulic conveyor of floating objects provided with a device for sanitising conveying composition, plant provided with such a conveyor and sanitising method” (MAF AGROBOTIC, priority 2016, dated 2021).
Where two headings read alike, the source gives them in different places.

Assays:
[1] = format: physicochemical
Method: A hydraulic conveyor of a plant for sorting and packaging apples is selected containing a volume of 90 m^3 of a conveying composition containing “BELLIS” at a concentration of 50 m g/l (and boscalid at a concentration of 22 μg/l). A flow rate of the conveying composition of 36 m^3/h is established in the external circuit using the circulation pump 14 and a flow rate of photoreactive composition of 270 cm^3/h is established using the distribution pump 19, the photoreactive composition being an aqueous solution of hydrogen peroxide at an initial concentration of 400 g/l, i.e. 108 g or pure hydrogen peroxide. Under these conveying composition flow conditions, all of the volume of the conveying composition contained in the plant is theoretically treated within 2.5 hours. The composition to be sanitised obtained at the inlet of the sanitising device thus has an initial hydrogen peroxide proportion in the order of 3 ppm and is sufficient to allow the decontamination of the composition to be sanitised at the outlet of the sanitising device formed of 6 photolysis chambers mounted in series, each chamber comprising five fluorescent tubes with an individual power of 200 W.
The results obtained are shown in Table 1 hereinafter in which the concentration values of boscalid in the composition to be sanitised at the inlet of the photolysis tank (EC), at the outlet of the third chamber (S3E) of the photolysis tank and at the outlet of the sixth chamber (S6E) of the photolysis tank are given in μg/l. The column S6E/EC represents the ratio multiplied by 100 of the boscalid concentration at the outlet of the sixth chamber (S6E) of the photolysis tank to the boscalid concentration at the inlet of the photolysis tank (EC). The column C/C0 represents the ratio of the boscalid concentration measured at the inlet of the photolysis tank over time to the initial boscalid concentration (t=0).

[2] = format: physicochemical; conditions: 10 min, 25 μg/l
Excerpt: The semi-industrial pilot device comprises a tank for composition to be treated of a volume of 1000 l, a circulation pump ensuring a flow of composition to be treated in a sanitising device with a flow rate of 6 m^3/h. The sanitising device comprises a single photolysis chamber comprising an inlet for water from the tank of composition to be treated and an outlet for sanitised water directed to the tank of composition to be treated. The composition to be treated comprises boscalid at an initial concentration of 25 μg/l and an initial hydrogen peroxide concentration of 2 mg/l.
The photolysis chamber is formed of a rigid tubular envelope, of which the external wall is opaque to light and forming an inner space suitable for receiving five fluorescent tubes with a longitudinal axis extending in parallel with the longitudinal axis of the rigid tubular envelope. The inner volume of the decontamination reactor is in the order of 32 l. The five fluorescent tubes are tubes of 200 W emitting light at a wavelength of 254 nm and arranged longitudinally in the tubular envelope at the five points of a regular pentagon and in contact with the water to be treated flowing in the photolysis chamber.
After 10 minutes of operation of the semi-industrial pilot device, almost all of the composition to be treated has been illuminated in the photolysis chamber. […]

[3] = format: physicochemical; conditions: 250 μg/l
Excerpt: A semi-industrial pilot device in accordance with one aspect of the invention comprises a tank for recirculating water to be treated of a volume of 1000 l, a circulation pump ensuring a circulation flow of the water to be treated in a sanitising device with a flow rate between 4 m^3 to 8 m^3/h. The sanitising device comprises a photolysis chamber comprising an inlet for water from the recirculation tank and an outlet for sanitised water directed to the recirculation tank. The photolysis chamber is formed of a rigid tubular envelope, of which the external wall is opaque to light and forming an inner space suitable for receiving five fluorescent tubes with a longitudinal axis extending in parallel with the longitudinal axis of the rigid tubular envelope. The inner volume of the decontamination reactor is in the order of […].
The five fluorescent tubes are tubes of 200 W emitting light at a wavelength of 254 nm and arranged longitudinally in the tubular envelope at the five points of a regular pentagon and in contact with the water to be treated flowing in the photolysis chamber. In this configuration of the sanitising device, the water to be sanitised flowing in contact with the five fluorescent tubes is subjected to substantially homogeneous illumination in the order of 500 mJ/cm^2 for a circulation flow rate of water to be sanitised in the order of 6 m^3/h. The semi-industrial pilot device also comprises a tank for storing an aqueous solution of hydrogen peroxide (H2O2) provided with a pump for distributing said solution in the circulation flow of water to be sanitised issuing into the circuit of water to be sanitised upstream of and in proximity to the photolysis chamber. The concentration of the hydrogen peroxide in the aqueous solution of hydrogen peroxide is between 2 m g/l and 13 mg/l. The set-point flow rate of the pump for distributing solution of H2O2 is kept at 4 l/h.
The flow rate of the recycling pump is 6 m^3/h and the initial boscalid concentration in the recirculation tank is 250 μg/l. The 5 lamps of the sanitising device are switched on. […]

SMILES: O=C(Nc1ccccc1-c1ccc(Cl)cc1)c1cccnc1Cl [boscalid]
- rate of degradation between the inlet and outlet of the photolysis tank ([1]; 22 μg/l): greater than 90%
- boscalid concentration at the inlet of the photolysis tank (EC) ([1]; time 0 hours): 21.43 µg/L
- C/C0 (inlet boscalid concentration over initial concentration) ([1]; time 1.25 hours): 0.79
- S6E/EC ([1]; time 1.25 hours): 92%
- boscalid concentration at the inlet of the photolysis tank (EC) ([1]; time 1.25 hours): 16.64 µg/L
- boscalid concentration at the outlet of the sixth chamber (S6E) ([1]; time 1.25 hours): 1.28 µg/L
- C/C0 (inlet boscalid concentration over initial concentration) ([1]; time 2.5 hours): 0.73
- S6E/EC ([1]; time 2.5 hours): 94%
- boscalid concentration at the inlet of the photolysis tank (EC) ([1]; time 2.5 hours): 15.68 µg/L
- boscalid concentration at the outlet of the sixth chamber (S6E) ([1]; time 2.5 hours): 0.99 µg/L
- boscalid concentration at the outlet of the third chamber (S3E) ([1]; time 2.5 hours): 3.96 µg/L
- C/C0 (inlet boscalid concentration over initial concentration) ([1]; time 3.75 hours): 0.73
- S6E/EC ([1]; time 3.75 hours): 94%
- boscalid concentration at the inlet of the photolysis tank (EC) ([1]; time 3.75 hours): 15.56 µg/L
- boscalid concentration at the outlet of the sixth chamber (S6E) ([1]; time 3.75 hours): 0.91 µg/L
- boscalid concentration at the outlet of the third chamber (S3E) ([1]; time 3.75 hours): 3.38 µg/L
- C/C0 (inlet boscalid concentration over initial concentration) ([1]; time 5 hours): 0.66
- S6E/EC ([1]; time 5 hours): 94%
- boscalid concentration at the inlet of the photolysis tank (EC) ([1]; time 5 hours): 14.06 µg/L
- boscalid concentration at the outlet of the sixth chamber (S6E) ([1]; time 5 hours): 0.56 µg/L
- boscalid concentration at the outlet of the third chamber (S3E) ([1]; time 5 hours): 2.71 µg/L
- C/C0 (inlet boscalid concentration over initial concentration) ([1]; time 7.5 hours): 0.38
- boscalid concentration at the inlet of the photolysis tank (EC) ([1]; time 7.5 hours): 8.25 µg/L
- boscalid concentration at the outlet of the third chamber (S3E) ([1]; time 7.5 hours): 1.78 µg/L
- elimination from the conveying composition of the hydraulic conveyor ([1]; within 7.5 hours): 62%
- rate of degradation of the initial boscalid [2]: 58%
- final rate of degradation [3]: 95%
- initial degradation [3]: equivalent to that obtained with the addition of hydrogen peroxide at the concentration of 13 mg/l
- degradation of the initial boscalid ([3]; 1 h): 10%
